Experimental data taken from US6160020A, “Alkali metal and alkaline-earth metal salts of acetaminophen” (priority 1998, dated 2000).
In brackets after ≈: the same amount, converted by molar mass. Structures can show the parent of a compound that is named as a salt. Where two headings read alike, the source gives them in different places.

Experiments:
[1] = aqueous solubility at 22° C.; assay type: physicochemical; details: for solubility equivalent of APAP free acid: expressed as APAP free acid, approximately
Description: Accordingly, the sodium, lithium and calcium salts have solubilities equivalent to approximately 260-280, 250-270, and 10 mg/mL, respectively, of APAP free acid.

in vivo = experiment: in vivo; parameters: species or system dog (male purebred beagles); details: dog, po
Description: A study was conducted in dogs to determine the bioavailability of acetaminophen sodium. The free acid form of acetaminophen was used as the control. Compressed cylindrical pellets having the following composition were prepared:
Acetaminophen Sodium--compressed neat (no excipients). Control--150 mg APAP, 30 mg microcrystalline cellulose, and 30 mg dextrates.
Eight male purebred beagles having a body weight at initial dosing of approximately 9 to 14 kg were used in the study. The dogs were fed PMI® Certified Canine Diet Meal No. 5007 and water, both ab libitum. The dogs were fasted overnight for approximately 12 hours prior to dosing and food was returned 4 hours after dosing.
The dogs were divided into two groups and each group was dosed with either acetaminophen sodium or the control (free acid APAP) pellets. A single dose equivalent to 300 mg of acetaminophen free acid was administered via an oral gavage using a stomach tube. Each dose was followed by 20 mL of water. After a period of one week, the each group was dosed again, but with the other form of acetaminophen. Twelve blood samples were collected form each dog on each dosing day (1 prior to dosing and 11 thereafter). The plasma was separated and tested for acetaminophen.

[2] = dissolution of APAP form (powder) in 0.1N hydrochloric acid, USP Dissolution Apparatus 2; assay type: physicochemical; details: paddle 50 rpm, 37° C.
Description: In 0.1N hydrochloric acid using USP Dissolution Apparatus 2 (paddle speed: 50 rpm) at 37° C., the concentration of acetaminophen at 30 seconds was as follows: […]

[3] = cited from earlier work
[4] = stability of anionic form of APAP in aqueous solution; assay type: physicochemical; details: pH>11
Description: The lack of discussion on APAP salts in the scientific literature may be due in part to the fact that the anionic form of APAP is stable in aqueous solution (pH>11) for only a short period of time (<24 h). If the salt is not quickly isolated after formation, p-aminophenolate (PAP) can form and result in discoloration of the resulting product.

Row | SMILES | aqueous solubility [1] [mg/mL] | concentration of acetaminophen at 30 seconds [2] | also measured
1 | CC(=O)Nc1ccc(O)cc1 [II, acetaminophen sodium (C8 H8 NO2 Na.7H2 O)] | 541 |  | 
2 | CC(=O)Nc1ccc(O)cc1 [Sodium Salt, acetaminophen sodium] |  | 0.30 Mg/mL of APAP | Tmax (in vivo): 16.2 ± 6 min; solubility equivalent of APAP free acid [1]: 260 to 280 mg/mL
3 | CC(=O)Nc1ccc(O)cc1 [Free Acid, acetaminophen] |  | 0.02 Mg/mL of APAP | 
4 | CC(=O)Nc1ccc(OC(=O)CC(N)C(=O)O)cc1 (stereo not drawn) [BAPA-HCl, β-p-acetamidophenyl aspartate] |  |  | water solubility, fold less soluble than APAP ([3]; relative to APAP): four
5 | CC(=O)Nc1ccc(OC(=O)CN)cc1 [APG-HBr, p-acetamidophenyl glycinate] |  |  | water solubility, fold more soluble than acetaminophen ([3]; relative to acetaminophen): five
6 | CC(=O)Nc1ccc(O)cc1 [anionic form of APAP] |  |  | stability in aqueous solution [4]: < 24 h

Continued, in another order:

Row | aqueous solubility [1] [mg/mL] | concentration of acetaminophen at 30 seconds [2] | SMILES | also measured
7 | 455 (≈ 3010 mM) |  | CC(=O)Nc1ccc(O)cc1 [IV, acetaminophen lithium (C8 H8 NO2 Li.6H2 O)] | aqueous solubility ([1]; listed as Example V): 472 mg/mL (≈ 3120 mM)
8 | 13 |  | CC(=O)Nc1ccc(O)cc1 [III, acetaminophen calcium (C16 H16 N2 O4 Ca.2H2 O)] | 
9 |  | 0.32 Mg/mL of APAP | CC(=O)Nc1ccc(O)cc1 [Lithium Salt, acetaminophen lithium] | solubility equivalent of APAP free acid [1]: 250 to 270 mg/mL
10 | 13 | 0.20 Mg/mL of APAP | CC(=O)Nc1ccc(O)cc1 [Calcium Salt, acetaminophen calcium] | solubility equivalent of APAP free acid [1]: ~10 mg/mL
11 | 493 |  | CC(=O)Nc1ccc(O)cc1 [I, acetaminophen sodium (C8 H8 NO2 Na.6H2 O)] | 
